The test has as its target (recombinant) catalytic domain of human Bub1 (amino acids 704-1085) (Homo sapiens (Human), UniProt O43683). As to the kind of experiment: Bub1 kinase assay (TR-FRET). The settings on record: ATP 10 μM final, peptide substrate 1 μM final, 60 min at 22° C., read-out: Biological Assay: Bub1 kinase assay median IC50. The format is biochemical. In short, it runs like this: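 Readout was TR-FRET between a Eu-labeled antibody complex recognizing phosphoserine and streptavidin-XL665 on the biotinylated peptide, after EDTA stop and 1 h at 22° C. The kinase reaction ran for 60 min at 22° C. Values are means or medians of repeat tests, from 4-parameter fits normalized to enzyme-free and inhibitor-free controls.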
(In general: In TR-FRET formats the signal depends on donor and acceptor labels being close together.)

Data on 32 molecules can be found in patent US10428044B2, “3-amino-1,5,6,7-tetrahydro-4H-indol-4-ones” (Bayer Pharma Aktiengesellschaft, priority 2014, dated 2019).

A word on the IC50: it is the concentration that inhibits the measured activity by half.

Sequence of (recombinant) catalytic domain of human Bub1 (amino acids 704-1085) (O43683 704-1085): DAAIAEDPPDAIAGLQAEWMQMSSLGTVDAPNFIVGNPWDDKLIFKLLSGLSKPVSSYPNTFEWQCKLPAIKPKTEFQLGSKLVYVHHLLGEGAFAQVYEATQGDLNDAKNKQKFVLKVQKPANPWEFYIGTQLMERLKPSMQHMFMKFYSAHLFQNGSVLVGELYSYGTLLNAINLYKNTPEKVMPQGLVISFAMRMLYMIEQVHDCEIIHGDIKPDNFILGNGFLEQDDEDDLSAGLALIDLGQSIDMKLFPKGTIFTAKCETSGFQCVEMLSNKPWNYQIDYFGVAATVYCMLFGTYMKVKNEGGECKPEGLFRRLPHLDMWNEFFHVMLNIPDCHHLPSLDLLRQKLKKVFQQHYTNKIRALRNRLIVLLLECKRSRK

Regarding `COc1ccc(Cn2cc(C(=O)Nc3cc(-c4[nH]c5c(c4Nc4ccccc4)C(=O)CC(C)(C)C5)ccn3)cn2)cc1` [Example 479, N-{4-[6,6-dimethyl-4-oxo-3-(phenylamino)-4,5,6,7-tetrahydro-1H-indol-2-yl]pyridin-2-yl}-1-(4-methoxybenzyl)-1H-pyrazole-4-carboxamide], the IC50 is 5.09 nM.
`CC1(C)CC(=O)c2c([nH]c(-c3ccnc(NC(=O)c4cncs4)c3)c2Nc2ccccc2)C1` [Example 480, N-{4-[6,6-dimethyl-4-oxo-3-(phenylamino)-4,5,6,7-tetrahydro-1H-indol-2-yl]pyridin-2-yl}-1,3-thiazole-5-carboxamide]: the IC50 was 6.3 nM.
As for `Cc1ccc(CO)c(Nc2c(-c3ccncc3)[nH]c3c2C(=O)CC(C)(C)C3)c1` [Example 481, 3-{[2-(hydroxymethyl)-5-methylphenyl]amino}-6,6-dimethyl-2-(pyridin-4-yl)-1,5,6,7-tetrahydro-4H-indol-4-one], the IC50 was found to be 78.6 nM.
Turning to `Cc1ccc(Nc2c(-c3ccncc3)[nH]c3c2C(=O)CC(C)(C)C3)c(CO)c1` [Example 482, 3-{[2-(hydroxymethyl)-4-methylphenyl]amino}-6,6-dimethyl-2-(pyridin-4-yl)-1,5,6,7-tetrahydro-4H-indol-4-one], the half-maximal inhibitory concentration (IC50) worked out at 12.2 nM.
For the molecule `Cc1cccc(Nc2c(-c3ccncc3)[nH]c3c2C(=O)CC(C)(C)C3)c1CO` [Example 483, 3-{[2-(hydroxymethyl)-3-methylphenyl]amino}-6,6-dimethyl-2-(pyridin-4-yl)-1,5,6,7-tetrahydro-4H-indol-4-one], the IC50 amounted to 9.48 nM.
On to `O=C1CCCc2[nH]c(-c3ccnc(NCCCCc4ccccc4)c3)c(Nc3ccccc3)c21` [Example 484, 3-(phenylamino)-2-{2-[(4-phenylbutyl)amino]pyridin-4-yl}-1,5,6,7-tetrahydro-4H-indol-4-one], for which the IC50 worked out at 907 nM.
Take `CC1(C)CC(=O)c2c([nH]c(-c3ccncc3)c2Nc2ccc(F)cc2CO)C1` [Example 485, 3-{[4-fluoro-2-(hydroxymethyl)phenyl]amino}-6,6-dimethyl-2-(pyridin-4-yl)-1,5,6,7-tetrahydro-4H-indol-4-one]: the IC50 stood at 5.84 nM.
Regarding `CC1(C)CC(=O)c2c([nH]c(-c3ccncc3)c2Nc2cccc(F)c2CO)C1` [Example 486, 3-{[3-fluoro-2-(hydroxymethyl)phenyl]amino}-6,6-dimethyl-2-(pyridin-4-yl)-1,5,6,7-tetrahydro-4H-indol-4-one], the IC50 is 3.45 nM.
Take `CC1(C)CC(=O)c2c([nH]c(-c3ccncc3)c2Nc2cc(F)ccc2CO)C1` [Example 487, 3-{[5-fluoro-2-(hydroxymethyl)phenyl]amino}-6,6-dimethyl-2-(pyridin-4-yl)-1,5,6,7-tetrahydro-4H-indol-4-one]: the 50% inhibitory concentration (IC50) worked out at 3.35 nM.
As to `CC1(C)CC(=O)c2c([nH]c(-c3ccncc3)c2Nc2ccccc2C(C)(C)O)C1` [Example 488, 3-{[2-(2-hydroxypropan-2-yl)phenyl]amino}-6,6-dimethyl-2-(pyridin-4-yl)-1,5,6,7-tetrahydro-4H-indol-4-one], the IC50 worked out at 39.1 nM.
On to `O=C1CCCc2[nH]c(-c3ccnc(NCCc4ccccc4)c3)c(Nc3ccccc3)c21` [Example 489, 3-(phenylamino)-2-{2-[(2-phenylethyl)amino]pyridin-4-yl}-1,5,6,7-tetrahydro-4H-indol-4-one], for which the IC50 amounted to 3320 nM.
To `O=C1CCCc2[nH]c(-c3ccnc(NCCCc4ccccc4)c3)c(Nc3ccccc3)c21` [Example 490, 3-(phenylamino)-2-{2-[(3-phenylpropyl)amino]pyridin-4-yl}-1,5,6,7-tetrahydro-4H-indol-4-one] belongs 2560 nM; to `CCO/N=C1\CC(C)(C)Cc2[nH]c(-c3ccncc3)c(Nc3ccccc3)c21` [Example 491, 4-(ethoxyimino)-6,6-dimethyl-N-phenyl-2-(pyridin-4-yl)-4,5,6,7-tetrahydro-1H-indol-3-amine], 1240 nM.
For `Cn1ccnc1COCC(=O)Nc1cc(-c2[nH]c3c(c2Nc2ccccc2)C(=O)CCC3)ccn1` [Example 493, 2-[(1-methyl-1H-imidazol-2-yl)methoxy]-N-{4-[4-oxo-3-(phenylamino)-4,5,6,7-tetrahydro-1H-indol-2-yl]pyridin-2-yl}acetamide], the concentration for half-maximal inhibition (IC50) was determined as 8.63 nM.
For `Cn1ncnc1COCC(=O)Nc1cc(-c2[nH]c3c(c2Nc2ccccc2)C(=O)CCC3)ccn1` [Example 494, 2-[(1-methyl-1H-1,2,4-triazol-5-yl)methoxy]-N-{4-[4-oxo-3-(phenylamino)-4,5,6,7-tetrahydro-1H-indol-2-yl]pyridin-2-yl}acetamide], the IC50 turned out to be 10.9 nM.
On to `O=C(COCc1ccccn1)Nc1cc(-c2[nH]c3c(c2Nc2ccccc2)C(=O)CCC3)ccn1` [Example 495, N-{4-[4-oxo-3-(phenylamino)-4,5,6,7-tetrahydro-1H-indol-2-yl]pyridin-2-yl}-2-(pyridin-2-ylmethoxy)acetamide], for which the IC50 came out at 10.6 nM.
To `Cc1ncsc1COCC(=O)Nc1cc(-c2[nH]c3c(c2Nc2ccccc2)C(=O)CCC3)ccn1` [Example 496, 2-[(4-methyl-1,3-thiazol-5-yl)methoxy]-N-{4-[4-oxo-3-(phenylamino)-4,5,6,7-tetrahydro-1H-indol-2-yl]pyridin-2-yl}acetamide] belongs 6.46 nM; to `CC1(C)CC(=O)c2c([nH]c(-c3ccnc(NCCCc4ccccc4)c3)c2Nc2ccccc2)C1` [Example 497, 6,6-dimethyl-3-(phenylamino)-2-{2-[(3-phenylpropyl)amino]pyridin-4-yl}-1,5,6,7-tetrahydro-4H-indol-4-one], 1440 nM; to `CC1(C)CC(=O)c2c([nH]c(-c3ccnc(NCCc4ccccc4)c3)c2Nc2ccccc2)C1` [Example 498, 6,6-dimethyl-3-(phenylamino)-2-{2-[(2-phenylethyl)amino]pyridin-4-yl}-1,5,6,7-tetrahydro-4H-indol-4-one], 1260 nM.
In the case of `O=C1CCCc2[nH]c(-c3ccnc(NCc4ccc(F)cc4)c3)c(Nc3ccccc3)c21` [Example 499, 2-{2-[(4-fluorobenzyl)amino]pyridin-4-yl}-3-(phenylamino)-1,5,6,7-tetrahydro-4H-indol-4-one], the IC50 came out at 830 nM.
For `O=C1CCCc2[nH]c(-c3ccnc(NCc4cncs4)c3)c(Nc3ccccc3)c21` [Example 500, 3-(phenylamino)-2-{2-[(1,3-thiazol-5-ylmethyl)amino]pyridin-4-yl}-1,5,6,7-tetrahydro-4H-indol-4-one] the value was 356 nM.
For `O=C1CCCc2[nH]c(-c3ccnc(NCc4cscn4)c3)c(Nc3ccccc3)c21` [Example 501, 3-(phenylamino)-2-{2-[(1,3-thiazol-4-ylmethyl)amino]pyridin-4-yl}-1,5,6,7-tetrahydro-4H-indol-4-one], the IC50 came to 96.7 nM.
For `O=C(COCC(F)(F)F)Nc1cc(-c2[nH]c3c(c2Nc2ccccc2)C(=O)CCC3)ccn1` [Example 502, N-{4-[4-oxo-3-(phenylamino)-4,5,6,7-tetrahydro-1H-indol-2-yl]pyridin-2-yl}-2-(2,2,2-trifluoroethoxy)acetamide] the value was 14.4 nM.
Consider `O=C1CCCc2[nH]c(-c3ccncc3)c(Nc3ccccn3)c21` [Example 503, 2-(pyridin-4-yl)-3-(pyridin-2-ylamino)-1,5,6,7-tetrahydro-4H-indol-4-one], for which the IC50 came to 36.1 nM.
To `Cn1ccc(C(=O)Nc2cc(-c3[nH]c4c(c3Nc3ccccc3)C(=O)CC(C)(C)C4)ccn2)n1` [Example 504, N-{4-[6,6-dimethyl-4-oxo-3-(phenylamino)-4,5,6,7-tetrahydro-1H-indol-2-yl]pyridin-2-yl}-1-methyl-1H-pyrazole-3-carboxamide] belongs 6.14 nM; to `CC1(C)CC(=O)c2c([nH]c(-c3ccnc(NC(=O)c4nccs4)c3)c2Nc2ccccc2)C1` [Example 505, N-{4-[6,6-dimethyl-4-oxo-3-(phenylamino)-4,5,6,7-tetrahydro-1H-indol-2-yl]pyridin-2-yl}-1,3-thiazole-2-carboxamide], 11.1 nM.
In the case of `Cn1cc(C(=O)Nc2cc(-c3[nH]c4c(c3Nc3ccccc3)C(=O)CC(C)(C)C4)ccn2)cn1` [Example 506, N-{4-[6,6-dimethyl-4-oxo-3-(phenylamino)-4,5,6,7-tetrahydro-1H-indol-2-yl]pyridin-2-yl}-1-methyl-1H-pyrazole-4-carboxamide], the IC50 was found to be 7.77 nM.
Take `CC1(C)CC(=O)c2c([nH]c(-c3ccnc(NCCCCc4ccccc4)c3)c2Nc2ccccc2)C1` [Example 507, 6,6-dimethyl-3-(phenylamino)-2-{2-[(4-phenylbutyl)amino]pyridin-4-yl}-1,5,6,7-tetrahydro-4H-indol-4-one]: the IC50 amounted to 959 nM.
`CC1(C)CC(=O)c2c([nH]c(-c3ccnc(NCc4cncs4)c3)c2Nc2ccccc2)C1` [Example 508, 6,6-dimethyl-3-(phenylamino)-2-{2-[(1,3-thiazol-5-ylmethyl)amino]pyridin-4-yl}-1,5,6,7-tetrahydro-4H-indol-4-one]: the IC50 is 193 nM.
In the case of `CC1(C)CC(=O)c2c([nH]c(-c3ccnc(NCC4CC4)c3)c2Nc2ccccc2)C1` [Example 509, 2-{2-[(cyclopropylmethyl)amino]pyridin-4-yl}-6,6-dimethyl-3-(phenylamino)-1,5,6,7-tetrahydro-4H-indol-4-one], the IC50 turned out to be 221 nM.
`CC1(C)CC(=O)c2c([nH]c(-c3ccncc3)c2Nc2cnccc2CO)C1` [Example 510, 3-{[4-(hydroxymethyl)pyridin-3-yl]amino}-6,6-dimethyl-2-(pyridin-4-yl)-1,5,6,7-tetrahydro-4H-indol-4-one]: the IC50 was 25.3 nM.
As for `CC1(C)CC(=O)c2c([nH]c(-c3ccncc3)c2Nc2ncccc2CO)C1` [Example 511, 3-{[3-(hydroxymethyl)pyridin-2-yl]amino}-6,6-dimethyl-2-(pyridin-4-yl)-1,5,6,7-tetrahydro-4H-indol-4-one], the concentration for half-maximal inhibition (IC50) is 65.2 nM.
